US20190218479A1, “Stabilized Liquid Peroxide Compositions” (Novozymes A/S, priority 2016, published 2019)

B1: Subtilisin2: subtilisin with amino acid sequence SEQ ID NO: 1, reference subtilisin not covered by the invention (protein, listed as Bacillus lentus)
chain: AQSVPWGISRVQAPAAHNRGLTGSGVKVAVLDTGISTHPDLNIRGGASFVPGEPSTQDGNGHGTHVAGTIAALNNSIGVLGVAPSAELYAVKVLGASGSGSVSSIAQGLEWAGNNGMHVANLSLGSPSPSATLEQAVNSATSRGVLVVAASGNSGAGSISYPARYANAMAVGATDQNNNRASFSQYGAGLDIVAPGVNVQSTYPGSTYASLNGTSMATPHVAGAAALVKQKNPSWSNVQIRNHLKNTATSLGSTNLYGSGLVNAEAATR

Key:
Assay type in all cases: physicochemical
Subtilisin1 [1] = molecular target: T1, Subtilisin1 (Lederbergia lenta, UniProt P29600, M216S); experiment: Residual activity of Subtilisin1 after storage in peroxide model detergents with or without subtilisin stabilizers (N,N-dimethylcasein/TNBS)
T1 sequence (P29600 whole entry M216S): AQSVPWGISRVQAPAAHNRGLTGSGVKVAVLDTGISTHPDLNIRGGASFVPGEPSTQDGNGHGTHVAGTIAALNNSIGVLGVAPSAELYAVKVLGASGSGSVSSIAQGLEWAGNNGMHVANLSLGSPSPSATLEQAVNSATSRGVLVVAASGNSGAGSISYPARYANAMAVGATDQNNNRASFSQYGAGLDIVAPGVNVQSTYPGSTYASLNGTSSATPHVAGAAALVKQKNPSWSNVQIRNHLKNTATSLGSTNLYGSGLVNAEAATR

Subtilisin1 [2] = molecular target: T1, Subtilisin1; experiment: as above; details: model detergents with hydrogen peroxide, pH 7 and 9; summary of Example 2
Description: Chemicals used as buffers and substrates were commercial products of at least reagent grade. Subtilisin1 has the amino acid sequence as shown in SEQ ID NO: 2, which is a subtilisin having a M216 substitution according to the invention. Subtilisin2 has the amino acid sequence as shown in SEQ ID NO: 1, which is a reference subtilisin not covered by the invention. The stock solution of each subtilisin contains 4.4% w/w of active enzyme protein. Stabilizer1: Cbz-Gly-Ala-Tyr-H (C-terminal aldehyde), wherein Cbz is benzyloxycarbonyl; which is a subtilisin stabilizer according to the invention. When used in the examples below, Stabilizer1 was added to the subtilisin stock solution at a concentration of 0.28% w/w. Stabilizer2: Cbz-Gly-Ala-NHCH(CH2C6H4pOH)CH(OH)(OSO3)Na (hydrosulfite adduct of a C-terminal aldehyde) wherein Cbz is benzyloxycarbonyl; which is a subtilisin stabilizer according to the invention. When used in the examples below, Stabilizer2 was added to the subtilisin stock solution at a concentration of 0.35% w/w. Stabilizer3: MeOCO-Val-Ala-Leu-H (C-terminal aldehyde). When used in the examples below, Stabilizer3 was added to the subtilisin stock solution at a concentration of 0.28% w/w. Stabilizer4: 4-formyl-phenyl-boronic acid (4-FPBA); which is a reference protease stabilizer not covered by the invention. When used in the examples below, Stabilizer4 was added to the subtilisin stock solution at a concentration of 3.4% w/w.
(§1) The compositions were prepared as shown in the examples and samples stored in closed vials for storage. Residual activity was measured by comparing activity in a stored sample at the time of taken out of incubation without freezing and comparing activity to a freshly prepared sample without peroxide and dividing activity in the stored sample with activity in the fresh sample.
(§2) Activity analysis is performed by analysing protease activity by hydrolysis of N,N-dimethylcasein to produce a carboxylic acid and a primary amine compounds. The primary amines that are formed react, under alkaline conditions, with tri-nitrobenzenesulfonic acid (TNBS) to form a colored complex. The amount of colored complex that forms over the fixed reaction period at a constant temperature (530 seconds at 40° C.; complex absorbance is measured at 405 nm) is related to the amount of active protease present in the sample. The amount of colored product complex produced is compared to a standard curve based on known protease concentrations to calculate the amount of active protease in the detergent sample. The amount of protease activity at a specific time point is compared to the t=0 activity level to calculate the % active protease remaining.
This study examined Subtilisin1 stability in the presence of hydrogen peroxide, with and without subtilisin stabilizers (Stabilizer4 and Stabilizer2) in two different model detergents at pH 7 and 9.

[3] = Stability of Subtilisin1 and Subtilisin2 in the liquid peroxide composition of Table 1 (residual protease activity, N,N-dimethylcasein/TNBS); details: liquid peroxide composition in Table 1 (0.8% H2O2, pH 7.0), 4 weeks
Experimental: as §1, §2

[4] = Residual hydrogen peroxide after storage, permanganate titration; details: liquid peroxide composition in Table 1, 37° C., 4 weeks
Experimental: Residual hydrogen peroxide (H2O2) was measured by permanganate titration (reduction of potassium permanganate by hydrogen peroxide in sulfuric acid).

[5] = Subtilisin1 in “Mix Laundry” (Table 19, pH 7.5) no H2O2, no sodium salicylate, no polyDADMAC
[6] = Subtilisin1 in “Mix Laundry” (Table 19, pH 7.5) with 1% H2O2, with sodium salicylate, with polyDADMAC
[7] = Subtilisin1 in “NI pretreat” (Table 19, pH 7.0) with 1% H2O2, with sodium salicylate, with polyDADMAC
[8] = Subtilisin1 in “NI pretreat” (Table 19, pH 7.0) without H2O2, no sodium salicylate, no polyDADMAC

Molecule	Residual activity after storage for 2 weeks at 30° C. (Subtilisin1 [1]; [5]) [%]	Residual activity after storage for 2 weeks at 30° C. (Subtilisin1 [1]; [6]) [%]	Residual activity after storage for 2 weeks at 37° C. (Subtilisin1 [1]; [7]) [%]	Residual activity after storage for 2 weeks at 37° C. (Subtilisin1 [1]; [8]) [%]	stabilization of Subtilisin1, compared to Stabilizer4 (Subtilisin1 [2])	% Subtilisin residual activity after 4 weeks ([3]; 22° C.) [%]	% Subtilisin residual activity after 4 weeks ([3]; 30° C.) [%]	% Subtilisin residual activity after 4 weeks ([3]; 37° C.) [%]	Residual H2O2 after 4 weeks [4] [%]
O=Cc1ccc(B(O)O)cc1 [Stabilizer4, 4-formyl-phenyl-boronic acid, reference compound]	86	20	11	129	–	–	–	–	–
MeOCO-Val-Ala-Leu-H [Stabilizer3]	83	60	64	95	–	–	–	–	–
O=BOB(O)OB(O)OB=O [borax, reference compound]	81	43	22	117	–	–	–	–	–
Cbz-Gly-Ala-NHCH(CH2C6H4pOH)CH(OH)(OSO3)Na [Stabilizer2]	83	52	61	98	much more effective stabilization	–	–	–	–
B1	–	–	–	–	–	35	33	15	95.8
